The results in this text go back to patent publication US9932589B2, “EML4-ALK fusion gene” (Astellas Pharma Inc., priority 2006, dated 2018).

One series has as its system human ALK gene. The series is described as follows: siRNA inhibition of mRNA expression of ALK gene in U-87MG cells, quantitative PCR. It is filed as cell-based. The note with it: siRNA 20 nM, 72 hours, mRNA. Here is the method:
(§1) The v1 expressing 3T3 cells and U-87MG cells were seeded to 12 well plates (IWAKI; Asahi techno glass corp.) at 50,000 cells and 150,000 cells, respectively. Four hours later, using a transfection reagent (Lipofectamine RNAiMax; Invitrogen Inc.), siRNA-1 to siRNA-9 were prepared to a final concentration of 20 nM and transfected to cells according to the attached instruction. In addition, as a control no siRNA transfection samples were prepared. After 72 hours, the medium was removed, and total RNA was extracted using an RNA purification kit (RNeasy Mini Kit; QIAGEN Inc.) according to the attached instruction, and cDNA was prepared using a cDNA synthesizing kit (ThermoScript RT-PCR System; Invitrogen Inc.) according to the attached instruction.
(§2) The amount of expressed mRNA of the EML4-ALK fusion polynucleotide v1 in v1 expressing 3T3 cells and the amount of mRNA of the ALK gene in U-87MG cells were quantitated using a quantitative PCR reagent (Power SYBR Green PCR Master Mix; Applied Biosystems Inc.) The PCR reaction was carried out as follows: after 10 minutes incubation at 95° C., 45 cycles of 95° C. for 15 seconds and 60° C. for 60 seconds, and then one cycle of 95° C. for 15 seconds, 60° C. for 15 seconds and 95° C. for 15 seconds to complete the reaction. In addition, to calibrate the amount of expression, the amount of expression of the mouse cyclophilin B gene and the human GAPDH gene was similarly quantitated for v1 expressing 3T3 cells and U-87MG cells, respectively. Analyses were carried out using a sequence detector (ABI PRISM 7900 Sequence Detection System; Perkin-Elmer Applied Biosystems Inc.).
(§3) Oligo nucleotides consisting of the base sequences represented by SEQ ID NO: 44 and 48, SEQ ID NO: 50 and 56, SEQ ID NO: 44 and 48 and SEQ ID NO: 12 and 13 were used as the primer sets that specifically recognize the EML4-ALK fusion polynucleotide v1, the mouse cyclophilin B gene, the human ALK gene and the human GAPDH gene. Also, to obtain a standard curve to calculate the amount of respective mRNA, PCR was performed using human genomic DNA (Clontech) as a template for EML4-ALK fusion polynucleotide v1, human ALK and human GAPDH, and using mouse genomic DNA (Clontech) as a template for mouse cyclophilin B and the aforementioned primer sets under the same condition. Since a primer set corresponding to human ALK polynucleotide exon 29 was used to detect the EML4-ALK fusion polynucleotide v1, the standard curve can be obtained using human genomic DNA. The expression amount of the EML4-ALK fusion polynucleotide v1 and the human ALK gene in respective samples was calibrated with the expression amount of the mouse cyclophilin B gene and the human GAPDH gene to obtain the calibrated expression amount.

The subject of a further series is v1 expressing 3T3 cells. In words: anchorage independent growth on spheroid plate, v1 expressing 3T3 cells. It is filed as cell-based, mouse. To be noted: siRNA transfected, spheroid plate, 3 days. The procedure: (§4) The v1 expressing 3T3 cells (Example 6(1)) and one of the human glioma cells expressing the full length ALK polypeptide and not expressing EML4-ALK fusion polynucleotide endogenously, U-87 MG cells, were seeded to a 96 well spheroid plate (Sumilon Celltight Spheroid 96U, Sumitomo Bakelite Inc.) at 3000 cells per well in a medium containing 10% fetal bovine serum (DMEM for v1 expressing 3T3 cells and RPMI 1640 for U-87MG). […] At the same time, cells were counted before the addition of drugs (Day 0). Then, cells were cultured under 5% CO2, at 37° C. for 3 days, mixed with a reagent for measuring cell number (CellTiter-Glo™ Luminescent Cell Viability Assay; Promega Inc.) stirred for 20 minutes, and the measurements (day 3) were carried out using a luminometer (ML3000 microtiter plate luminometer; Dynatech Laboratories Inc.).

A further series relates to U-87MG cells. The series is described as follows: anchorage independent growth on spheroid plate, U-87MG cells expressing full length ALK. It is filed as cell-based, human. The note with it: siRNA transfected, 3 days; for U-87MG cell growth inhibition rate: spheroid plate. Here is the method:
as §4

The test system of series [1] is EML4-ALK fusion polynucleotide v1. The series is described as follows: siRNA inhibition of mRNA expression of EML4-ALK fusion polynucleotide v1 in v1 expressing 3T3 cells, quantitative PCR. Format: cell-based, mouse. To be noted: siRNA 20 nM, 72 hours, mRNA. The procedure:
as §1, §2, §3

In the case of “siRNA-6: siRNA, sense strand SEQ ID NO: 121, antisense SEQ ID NO: 122; fusion area of EML4-ALK v1 (sense AAGUGUACCGCCGGAAGCACC; antisense TGCTTCCGGCGGUACACUUUA; chemistry not given here)”, the “Inhibition rate for ALK gene expression (U-87 MG cells)” value (“Inhibition rate … (U-87 MG cells)” for short) with human ALK gene stood at 15%. The “v1 expressing 3T3 cells growth inhibition rate” value in the series with v1 expressing 3T3 cells is on record as 97%. Besides, in the series on U-87MG cells, the “U-87MG cell growth inhibition rate” value worked out at 16%. The “Inhibition rate for EML4-ALK gene expression (v1 expressing 3T3 cells)” value (“Inhibition rate … (v1 expressing 3T3 cells)” for short) in series [1] came to 69%.

In the case of “siRNA-2: siRNA, sense strand SEQ ID NO: 113, antisense SEQ ID NO: 114; fusion area of EML4-ALK v1 (sense GGGAAAGGACCUAAAGTGTAC; antisense ACACTTUAGGUCCUUUCCCAG; chemistry not given here)”, the “Inhibition rate … (U-87 MG cells)” value in the series with human ALK gene stood at 11%. In addition, the “U-87MG cell growth inhibition rate” value in the series on U-87MG cells is recorded as 25%. In addition, in series [1], the “Inhibition rate … (v1 expressing 3T3 cells)” value worked out at 66%.

In the case of “siRNA-4: siRNA, sense strand SEQ ID NO: 117, antisense SEQ ID NO: 118; fusion area of EML4-ALK v1 (sense CCUAAAGUGUACCGCCGGAAG; antisense TCCGGCGGUACACUUUAGGUC; chemistry not given here)”, the “Inhibition rate … (U-87 MG cells)” value in the series with human ALK gene was determined as 22%. For the same substance, the “U-87MG cell growth inhibition rate” value with U-87MG cells is given as −8%. The “Inhibition rate … (v1 expressing 3T3 cells)” value in series [1] turned out to be 86%.

With “siRNA-3: siRNA, sense strand SEQ ID NO: 115, antisense SEQ ID NO: 116; fusion area of EML4-ALK v1 (sense GGACCUAAAGUGUACCGCCGG; antisense GGCGGTACACUUUAGGUCCUU; chemistry not given here)”, the “Inhibition rate … (U-87 MG cells)” value in the series with human ALK gene worked out at 10%. For the same substance, the “U-87MG cell growth inhibition rate” value in the series with U-87MG cells is listed as −21%. The “Inhibition rate … (v1 expressing 3T3 cells)” value in series [1] is given as 62%.

Regarding “siRNA-5: siRNA, sense strand SEQ ID NO: 119, antisense SEQ ID NO: 120; fusion area of EML4-ALK v1 (sense AAAGUGUACCGCCGGAAGCAC; antisense GCTTCCGGCGGUACACUUUAG; chemistry not given here)”, in the series with human ALK gene, the “Inhibition rate … (U-87 MG cells)” value is reported as −22%. Also, the “U-87MG cell growth inhibition rate” value in the series on U-87MG cells is −13%. Further, the “Inhibition rate … (v1 expressing 3T3 cells)” value in series [1] is 76%.

Turning to “siRNA-1: siRNA, sense strand SEQ ID NO: 111, antisense SEQ ID NO: 112; fusion area of EML4-ALK v1 (sense UGGGAAAGGACCUAAAGTGTA; antisense CACTTTAGGUCCUUUCCCAGG; chemistry not given here)”, the “Inhibition rate … (U-87 MG cells)” value in the series on human ALK gene is reported as −12%. Besides, in the series on U-87MG cells, the “U-87MG cell growth inhibition rate” value is reported as −13%. The “Inhibition rate … (v1 expressing 3T3 cells)” value in series [1] worked out at 80%.

For the substance “siRNA-7: siRNA, sense strand SEQ ID NO: 123, antisense SEQ ID NO: 124; ALK area of EML4-ALK v1 (sense GGCCUGUAUACCGGATAATGA; antisense ATTATCCGGUAUACAGGCCCA; chemistry not given here)”, in the series with v1 expressing 3T3 cells, the “v1 expressing 3T3 cells growth inhibition rate” value stood at 87%. Further, in the series with U-87MG cells, the “growth of U-87MG cells (in words)” value is on record as “did not inhibit the growth of U-87MG cells” and the “U-87MG cell growth inhibition rate” value is reported as 15%. In series [1], the “Inhibition rate … (v1 expressing 3T3 cells)” value is 67%.

As for “siRNA-8: siRNA, sense strand SEQ ID NO: 125, antisense SEQ ID NO: 126; ALK area of EML4-ALK v1 (sense GGCCUGUAUACCGGAUAAUGA; antisense AUUAUCCGGUAUACAGGCCCA; chemistry not given here)”, in the series with U-87MG cells, the “growth of U-87MG cells (in words)” value is “did not inhibit the growth of U-87MG cells” and the “U-87MG cell growth inhibition rate” value is listed as −21%. The “Inhibition rate … (v1 expressing 3T3 cells)” value in series [1] is recorded as 70%.
